This passage reports IC50 and Activity results from ChEMBL document CHEMBL1151752, “Synthesis and structure-activity relationships of 2-amino-1-aroylnaphthalene and 2-hydroxy-1-aroylnaphthalenes as potent antitubulin agents” (J Med Chem, 2008).

A value given as a limit tells only on which side of the number the result lay.

For assay [1], the system named is KB. As to the kind of experiment: Growth inhibition of human Pgp170 overexpressing multidrug resistant-KB-VIN10 cells after 72 hrs by methylene blue dye assay. The class given is functional, cell-based.
For the next assay, the system named is HT-29. As to the kind of experiment: Growth inhibition of human HT-29 cells after 72 hrs by methylene blue dye assay. Format: functional, cell-based. As to conditions: HT-29, 72 h.
In the next assay the test system is NCI-H460. Briefly: Growth inhibition of human H460 cells after 72 hrs by methylene blue dye assay. Format: functional, cell-based. The following applies: NCI-H460, 72 h.
In assay [2] the test system is KB. As to the kind of experiment: Growth inhibition of human KB cells after 72 hrs by methylene blue dye assay. The class given is functional, cell-based.
A further assay has as its system MKN-45. Briefly: Growth inhibition of human MKN45 cells after 72 hrs by methylene blue dye assay. The class given is functional, cell-based. The following applies: MKN-45, 72 h.
Assay [3] is described as follows: Displacement of [3H]colchicine from tubulin after 2 hrs at 5 uM.
A short description of assay [4]: Inhibition of tubulin polymerization after 30 mins.
In assay [5] the test system is KB. As to the kind of experiment: Growth inhibition of human KB-7D cells overexpressing multidrug resistant associated protein after 72 hrs by methylene blue dye assay. Format: functional, cell-based.
Assay [6] concerns KB. Briefly: Growth inhibition of human Pgp170 overexpressing multidrug resistant-KB-TAX50 cells after 72 hrs by methylene blue dye assay. The class given is functional, cell-based.
The nature of assay [7]: Growth inhibition of human fibroblast Detrot 551 cells after 72 hrs by methylene blue dye assay. Format: cell-based. As to conditions: Detrot 551, 72 h.

As for `CCc1ccc2cc(OC)ccc2c1C(=O)c1cc(OC)c(OC)c(OC)c1`, the IC50 (in general, the point on the concentration scale where inhibition reaches its midpoint) in the assay with KB [1] came to 512 nM; in the assay with HT-29, 667 nM; with NCI-H460, 764 nM; with KB [2], 600 nM; in the assay with MKN-45, 320 nM.
As to `COc1ccc2c(C(=O)c3cc(OC)c(OC)c(OC)c3)c(C)ccc2c1`, the Activity in assay [3] is 67%. The IC50 in the assay with KB [1] is 263 nM; in the assay on HT-29, 412 nM; with NCI-H460 it was 321 nM; in the assay on KB [2], 276 nM; with MKN-45, 254 nM; in assay [4] it was 2900 nM.
`COc1ccc2c(C(=O)c3cc(OC)c(OC)c(OC)c3)c(O)ccc2c1` displayed an Activity in assay [3] of 75%. The IC50 was determined as 11 nM in the assay on KB [1]; 26.3 nM in the assay with HT-29; 12.6 nM in the assay with NCI-H460; 8.2 nM in the assay with KB [2]; 16.9 nM in the assay with KB [5]; 15 nM with KB [6]. Also, the IC50 in assay [7] was above 1000 nM; in the assay on MKN-45, 21 nM; in assay [4] it was 2600 nM.
In the case of `CCCc1ccc2cc(OC)ccc2c1C(=O)c1cc(OC)c(OC)c(OC)c1`, the IC50 with KB [1] came to 1100 nM; in the assay on HT-29, 1320 nM; in the assay with NCI-H460, 987 nM; in the assay with KB [2], 1000 nM; in the assay with MKN-45, 840 nM.
Regarding `CNc1ccc2cc(OC)ccc2c1C(=O)c1cc(OC)c(OC)c(OC)c1`, the IC50 stood at 364 nM in the assay on KB [1]; 512 nM with HT-29; 416 nM in the assay with NCI-H460; 381 nM with KB [2]; 338 nM in the assay with MKN-45.
As to `CCOc1ccc2cc(OC)ccc2c1C(=O)c1cc(OC)c(OC)c(OC)c1`, the IC50 in the assay on KB [1] was found to be 912 nM; in the assay with HT-29, 1130 nM; with NCI-H460 it was 1210 nM; in the assay on KB [2], 1000 nM; with MKN-45 it was 874 nM.
Take `COc1ccc2c(C(=O)c3cc(OC)c(OC)c(OC)c3)c(N(C)C)ccc2c1`: the IC50 with KB [1], with HT-29, in the assay on NCI-H460, in the assay with KB [2] and in the assay with MKN-45 was above 10000 nM throughout.
Regarding `CCCOc1ccc2cc(OC)ccc2c1C(=O)c1cc(OC)c(OC)c(OC)c1`, the IC50 in the assay with KB [1] worked out at 2430 nM; in the assay on HT-29 it was 2850 nM; with NCI-H460, 2720 nM; in the assay on KB [2] it was 2600 nM; in the assay on MKN-45 it was 1760 nM.
Turning to `COc1ccc2c(OC)c(C(=O)c3cc(OC)c(OC)c(OC)c3)ccc2c1`, the IC50 in the assay with KB [1], in the assay on HT-29, in the assay on NCI-H460, in the assay with KB [2] and in the assay on MKN-45 was above 10000 nM in each case.
`COc1ccc2c(C(=O)c3cc(OC)c(OC)c(OC)c3)c[nH]c2c1`: the Activity in assay [3] was 85%. Further, the IC50 in the assay with KB [1] was 6.2 nM; in the assay with HT-29, 5.9 nM; in the assay on NCI-H460, 7.1 nM; with KB [2], 4.6 nM; in the assay with MKN-45 it was 3.2 nM; in assay [4], 2800 nM.
As to `COc1ccc2c(N)c(C(=O)c3cc(OC)c(OC)c(OC)c3)ccc2c1`, the IC50 with KB [1] was 7910 nM; in the assay on HT-29 it was 9850 nM; with NCI-H460, above 10000 nM; with KB [2], 8800 nM; in the assay with MKN-45 it was 7430 nM; in assay [4] it was above 10000 nM.
`COc1cc([C@@H]2c3cc4c(cc3[C@@H](O[C@@H]3O[C@@H]5CO[C@@H](C)O[C@H]5[C@H](O)[C@H]3O)[C@H]3COC(=O)[C@H]23)OCO4)cc(OC)c1O` [ETOPOSIDE]: the IC50 in the assay on KB [1] turned out to be 23000 nM; in the assay with KB [5], 54000 nM; in the assay on KB [6], 3500 nM.
For `COc1ccc2c(C(=O)c3cc(OC)c(OC)c(OC)c3)c(OC)ccc2c1`, in assay [3], the Activity came to 52%. Besides, the IC50 stood at 70 nM in the assay with KB [1]; 144 nM in the assay on HT-29; 84 nM with NCI-H460; 65 nM in the assay on KB [2]; 53 nM in the assay with MKN-45; 2700 nM in assay [4].
For `COc1cc2c(c(OC)c1OC)-c1ccc(OC)c(=O)cc1[C@@H](NC(C)=O)CC2` [COLCHICINE], the IC50 in the assay with HT-29 worked out at 10 nM; with NCI-H460 it was 18 nM; in the assay on KB [2], 11 nM; in [4], 3200 nM.
For `CC[C@]1(O)C[C@H]2CN(CCc3c([nH]c4ccccc34)[C@@](C(=O)OC)(c3cc4c(cc3OC)N(C=O)[C@H]3[C@@](O)(C(=O)OC)[C@H](OC(C)=O)[C@]5(CC)C=CCN6CC[C@]43[C@@H]65)C2)C1` [VINCRISTINE], the IC50 is 90.1 nM in the assay on KB [1], 0.4 nM in the assay with KB [2], 1.2 nM with KB [5] and 17.6 nM in the assay with KB [6].
As to `COc1ccc2c(C(=O)c3cc(OC)c(OC)c(OC)c3)c(N)ccc2c1`, the Activity in assay [3] was 85%. In addition, the IC50 in the assay on KB [1] amounted to 3.3 nM; in the assay on HT-29, 15.4 nM; in the assay with NCI-H460, 3.6 nM; with KB [2], 2.9 nM; in the assay on KB [5], 3.5 nM; in the assay with KB [6], 3.1 nM. For the same molecule, the IC50 in assay [7] is above 1000 nM; in the assay with MKN-45 it was 2.1 nM; in assay [4], 2400 nM.
With `COc1ccc2c(C(=O)c3cc(OC)c(OC)c(OC)c3)cccc2c1`, in assay [3], the Activity came to 68%. Further, the IC50 in the assay with KB [1] came out at 58 nM; with HT-29, 69.4 nM; with NCI-H460 it was 85.5 nM; with KB [2], 72.9 nM; with MKN-45, 44.1 nM; in assay [4] it was 4300 nM.
Regarding `CC(=O)O[C@H]1C(=O)[C@@]2(C)[C@H]([C@H](OC(=O)c3ccccc3)[C@]3(O)C[C@H](OC(=O)[C@H](O)[C@@H](NC(=O)c4ccccc4)c4ccccc4)C(C)=C1C3(C)C)[C@]1(OC(C)=O)CO[C@@H]1C[C@@H]2O` [PACLITAXEL], the IC50 stood at 16500 nM in the assay on KB [1], 3.3 nM with KB [2], 7.9 nM in the assay on KB [5] and 273 nM with KB [6].
With `COc1ccc2cc(C(=O)c3cc(OC)c(OC)c(OC)c3)ccc2c1`, the IC50 with KB [1] was determined as 530 nM; in the assay with HT-29, 548 nM; in the assay with NCI-H460, 716 nM; in the assay with KB [2], 510 nM; in the assay on MKN-45 it was 462 nM.
`COc1ccc(/C=C\c2cc(OC)c(OC)c(OC)c2)cc1O` yielded an Activity in [3] of 93%.
Take `COc1ccc2c(O)c(C(=O)c3cc(OC)c(OC)c(OC)c3)ccc2c1`: the half-maximal inhibitory concentration (IC50) in the assay on KB [1], with HT-29, in the assay with NCI-H460, in the assay with KB [2] and with MKN-45 was above 10000 nM in each case.
